pIC50: −log10 of the molar value.
Experiments:
NEP [1] = biological target: T1, NEP (Rattus norvegicus, UniProt P07861); assay: NEP inhibition activity using rat renal cortex (Experiment B-1); type: biochemical; set-up: membrane fraction prepared from rat renal cortex; from tissue; host or cells: rat renal cortex, membrane fraction (method of Booth and Kenny); conditions: rat renal cortex membrane fraction
T1 sequence (P07861 1-750): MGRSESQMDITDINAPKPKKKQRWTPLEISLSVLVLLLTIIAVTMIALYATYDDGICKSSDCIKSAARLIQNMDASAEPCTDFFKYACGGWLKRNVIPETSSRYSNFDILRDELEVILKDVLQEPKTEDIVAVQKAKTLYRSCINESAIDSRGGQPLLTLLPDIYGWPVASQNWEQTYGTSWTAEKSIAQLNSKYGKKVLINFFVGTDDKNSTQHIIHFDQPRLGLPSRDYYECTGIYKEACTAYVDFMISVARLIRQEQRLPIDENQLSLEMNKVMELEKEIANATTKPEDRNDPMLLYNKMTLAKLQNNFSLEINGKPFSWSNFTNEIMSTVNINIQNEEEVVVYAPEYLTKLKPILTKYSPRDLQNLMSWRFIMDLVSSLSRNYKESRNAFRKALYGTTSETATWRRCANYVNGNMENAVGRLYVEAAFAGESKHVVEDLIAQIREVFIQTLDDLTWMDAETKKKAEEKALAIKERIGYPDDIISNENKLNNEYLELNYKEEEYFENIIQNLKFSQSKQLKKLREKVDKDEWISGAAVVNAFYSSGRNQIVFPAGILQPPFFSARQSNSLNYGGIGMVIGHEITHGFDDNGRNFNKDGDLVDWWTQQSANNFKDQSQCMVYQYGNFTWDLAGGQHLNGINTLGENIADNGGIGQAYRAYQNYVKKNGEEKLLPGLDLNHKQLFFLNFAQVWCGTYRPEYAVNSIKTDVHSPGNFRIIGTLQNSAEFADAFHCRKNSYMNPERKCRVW
Method: The NEP activity was determined by using a membrane fraction prepared from rat renal cortex in accordance with the method of Booth and Kenay (A Rapid Metod for the Purificaton of Microvilli from Rabbit Kidney., Andrew G. Booth and A. John Kenny, Biochem j., 1974, 142, 575-581.).
The NEP activity was determined by the following manner in accordance with the method of Orlowsky and Wilk (Purification and Specificity of a Membrane-Bound Metalloendpeptldase from Bovine Pituitaries., Marian Orlowsky and Shrwin Wilk, Biochemistry, 1981, 20, 4942-4950.).
(§1) As a substrate, benzoyl-glycine-arginine-arginine-2-naphthylamide (benzoyl-Gly-Arg-Arg-2-naphthylamide (Nova Biochem, Switzerland)) was used. In the presence of an NEP enzyme preparation and excessive leucine aminopeptidase (sigma chemical Co., U.S.A.), the liberated naphthylamine was made to undergo color development with first garnet (Sigma chemical Co., U.S.A.), followed by the measurement of the absorbance at a wavelength of 540 nm.
(§2) With respect to the NEP inhibition activity, the inhibitor was added to the reaction system as described above in such a manner as to give the final concentrations of 1, 3, 10, 30, 100, 300 and 1000 nM, an inhibition curve was prepared, and then the concentration at which 50% inhibition was achieved was taken as IC50.

ACE [2] = biological target: T2, ACE (Rattus norvegicus, UniProt P47820); assay: ACE inhibition activity using rat lung (Experiment B-2); type: biochemical; conditions: rat lung membrane fraction, borate buffer
T2 construct: membrane fraction prepared from rat lung; from tissue; host or cells: rat lung, membrane fraction (method of Wu-Wong et al.)
T2 sequence (P47820 36-1313): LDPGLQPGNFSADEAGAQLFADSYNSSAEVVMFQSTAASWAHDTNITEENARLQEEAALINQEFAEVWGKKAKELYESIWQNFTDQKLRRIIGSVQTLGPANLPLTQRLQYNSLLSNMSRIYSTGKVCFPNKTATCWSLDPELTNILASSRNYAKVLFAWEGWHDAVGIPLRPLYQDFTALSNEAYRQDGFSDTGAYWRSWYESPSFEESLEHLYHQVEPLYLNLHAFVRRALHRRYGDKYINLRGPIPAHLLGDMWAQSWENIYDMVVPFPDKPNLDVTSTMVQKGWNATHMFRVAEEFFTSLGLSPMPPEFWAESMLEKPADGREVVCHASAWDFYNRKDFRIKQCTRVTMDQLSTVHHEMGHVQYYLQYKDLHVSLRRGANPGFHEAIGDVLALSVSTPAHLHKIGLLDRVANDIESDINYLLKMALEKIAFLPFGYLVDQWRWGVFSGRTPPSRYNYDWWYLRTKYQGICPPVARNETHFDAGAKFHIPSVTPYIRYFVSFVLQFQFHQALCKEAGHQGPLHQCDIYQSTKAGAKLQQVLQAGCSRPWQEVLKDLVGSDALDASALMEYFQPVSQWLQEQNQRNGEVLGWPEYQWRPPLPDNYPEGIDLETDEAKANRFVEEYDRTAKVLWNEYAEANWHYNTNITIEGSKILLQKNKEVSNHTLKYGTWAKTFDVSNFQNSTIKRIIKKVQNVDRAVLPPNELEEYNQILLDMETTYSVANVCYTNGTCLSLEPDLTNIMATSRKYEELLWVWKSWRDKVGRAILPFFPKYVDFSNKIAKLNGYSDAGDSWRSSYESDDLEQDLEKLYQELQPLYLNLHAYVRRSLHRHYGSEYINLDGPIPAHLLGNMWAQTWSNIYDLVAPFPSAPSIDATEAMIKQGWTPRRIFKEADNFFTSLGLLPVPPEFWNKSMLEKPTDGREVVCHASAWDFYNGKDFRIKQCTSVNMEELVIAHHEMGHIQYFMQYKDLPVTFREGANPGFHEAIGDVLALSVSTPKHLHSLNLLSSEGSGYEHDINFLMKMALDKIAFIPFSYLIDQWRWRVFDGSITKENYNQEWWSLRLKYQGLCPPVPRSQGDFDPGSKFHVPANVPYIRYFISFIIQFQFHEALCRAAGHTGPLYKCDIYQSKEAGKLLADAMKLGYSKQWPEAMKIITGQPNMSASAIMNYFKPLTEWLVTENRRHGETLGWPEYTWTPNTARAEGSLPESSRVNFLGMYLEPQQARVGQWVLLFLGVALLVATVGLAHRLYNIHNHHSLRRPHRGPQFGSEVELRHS
Method: The ACE inhibition activity was determined by using a membrane fraction prepared from rat lung in accordance with the method of Wu-Wong et al. (Characterization of Endthelin Converting Enzyme in Rat Lung., Junshyum R. Wu-Wong, Gerald, P. Budzik, Edward M. Devine and Terry J. Opgenorth, Biochem. Biophys. Res. Commun., 1990, 171, 1291-1296.).
The ACE activity was determined with the use of a modification (modified to a borate buffer, p11 8.3) of the method of Cushman and Cheung (Spectrophotometric Assay and Properties of the Angiotensin-Converting Enzyme of Rabbit Lung., Cushman, D. W. and Cheung H. S., 1971, 20, […].).
In the presence of ACE, the hippurate liberated from hippuryl-histidine-leucine (Hippuryl-His-Leu (PeptideInstitute Inc., Japan)) was extracted with ethyl acetate and then the absorbance was measured at a wavelength of 228 nm.
as §2, with “ACE” for “NEP”

ACE [3] = biological target: T2, ACE; assay: ACE inhibition activity (Experiment E-1); type: biochemical; conditions: rat lung membrane fraction, pH 8.3
Method: As a source of the enzyme ACE, a membrane fraction prepared from rat lung in accordance with the method of Wu-Wong et al. (Characterization of Endthelin Converting Enzyme in Rat Lung., Jinshyum R. Wu-Wong, Gerald, P. Budzik, Edward M. Devine and Terry J. Opgenorth, Biochem. Biophys. Res. Commun., 1990, 171, 1291-1296.) was used. The ACE activity was determined with the use of a modification (modified to a borate buffer pH 8.3) of the method of Cushman and Cheung (Spectrophotometric Assay and Properties of the Angiotensin-Converting Enzyme of Rabbit Lung., Cushman D. W. and Cheung H. S., 1971, 20, 1637-1648.). Now the procedure will be briefly described.
In the presence of ACE, the hippurate liberated from hippuryl-histidyl-leucine (Hippuryl-His-Leu (PeptideInstitute Inc., Japan)) was extracted with ethyl acetate and then the absorbance was measured at a wavelength of 228 nm.
(§3) To determine the NEP inhibition activity and the ACE inhibition activity, the inhibitor was added to the assay systems of both enzyme activities as described above in such a manner as to give the final concentrations of 1, 3, 10, 30, 100, […] and 1000 nM and inhibition curves were prepared. Then the concentration at which 50% inhibition was achieved was taken as IC50.

NEP [4] = biological target: T1, NEP; assay: NEP inhibition activity (Experiment E-1); type: biochemical; set-up: membrane fraction prepared from rat renal cortex; from tissue; host or cells: rat renal cortex, membrane fraction (method of Booth and Kenny); conditions: rat renal cortex membrane fraction
Method: As a source of the enzyme NEP, a membrane fraction prepared from rat renal cortex in accordance with the method of Booth and Kenny (A Rapid Method for the Purification of Microvilli from Rabbit Kidney., Andrew G. Booth and A. John Kenny, Biochem. j., 1974, 142,575-581.) was employed. The NEP activity was determined in accordance with the method of Orlowsky and Wilk (Purification and Specificity of a Membrane-Bound Metalloendpeptidase from Bovine Pituitaries., Marian Orlowsky and Shrwin Wilk, Biochemistry, 1981, 20, 4942-4950.). Now the procedure will be briefly described.
as §1, with “benzoyl-glycyl-arginyl-arginyl-2-naphthylamide (benzoyl-Gly-Arg-Arg-2 naphthylamide” for “benzoyl-glycine-arginine-arginine-2-naphthylamide (benzoyl-Gly-Arg-Arg-2-naphthylamide”
as §3

in vivo = conditions: rat, in vivo; for bioavailability: po
From the text: Then changes in the blood level of each medicament were monitored with the lapse of time by using liquid chromatography.

| SMILES | pIC50 (NEP [1]) | pIC50 (ACE [2]) | pIC50 (ACE [3]) | pIC50 (NEP [4]) | oral absorbability (in vivo) | bioavailability (in vivo; 10 mg/kg) [%] | bioavailability (in vivo; 30 mg/kg) [%] |
| --- | --- | --- | --- | --- | --- | --- | --- |
| CCOC(=O)C1CCCC2c3sccc3CC(NC(=O)[C@H](Cc3ccccc3)SC(C)=O)C(=O)N12 (single isomer, unassigned) [Example B-7] | 7.26 | 7.22 |  |  |  |  |  |
| O=C(N[C@H]1Cc2sccc2[C@H]2CCC[C@@H](C(=O)O)N2C1=O)[C@@H](S)Cc1ccccc1 [Example B-3, [5S-[5α,8α(R*),11αβ]]-5-[[(S)-2-Mercapto-1-oxo-3-phenylpropyl]amino]-6-oxo-4,5,6,8,9,10,11,11a-octahydropyrido[1,2-a]thieno[3,2c]azepine-8-carboxylic acid] | 8.07 | 7.80 |  |  |  |  |  |
| O=C(O)C1CCCC2c3sccc3CC(NC(=O)[C@@H](S)Cc3ccccc3)C(=O)N12 (stereo partly drawn) [Example B-8, 5-[(S)-2-Mercapto-1-oxo-3-phenylpropyl]amino-6-oxo-4,5,6,8,9,10,11,11a-octahydro[1,2-a]thieno-[2,3-c]azepine-8-carboxylic acid] | 7.14 | 7.05 |  |  |  |  |  |
| O=C(N[C@H]1Cc2ccc(-c3ccccc3)cc2[C@H]2CCC[C@@H](C(=O)O)N2C1=O)[C@@H](S)Cc1ccccc1 [Example E-6, [4S-[4α,7α(R*),12bβ]]-7-[(S)-2-Mercapto-3-phenylpropionylamino]-6-oxo-11-phenyl-1,2,3,4,6,7,8,12b-octahydropyrido[2,1-a][2]benzazepine-4-carboxylic acid] |  |  | 8.00 | 7.55 | superior in oral absorbability to the comparative compound E-1 | 18.8 | 24.6 |
